Laboratory results reported in patent US7700590B2, “Antibacterial agents” (University of New Orleans Research and Technology …, priority 2006, dated 2010).
≈ marks a conversion by molar mass, not a printed value. Like-named read-outs stand apart in the source and are kept apart here.

What was measured:
Type in all cases: cell-based
[1] = system: Staphylococcus aureus 43300; experiment: Antibacterial growth inhibition assay (serial dilution, colorimeter at 600 nm), S. aureus 43300; set-up: key to MIC, concentration at 50% inhibition of bacteria growth, S. aureus 43300: N stands for no inhibition
Procedure: (§1) The antibacterial activities of the compounds synthesized as described above were evaluated by assay against several strains of Gram positive bacteria from the American Type Culture Collection (ATCC), Staphylococcus aureus 29213, Staphylococcus aureus 43300, Enterococcus faecalis 29212, and Bacillus subtilis PY79. The minimum inhibition concentration (MIC, μg/mL) of each compound synthesized was tested against four bacterial strains. The inhibition of bacterial growth was monitored using a standard colorimeter at 600 nm using a serial dilution at concentrations 238, 119, 59.5, 29.8, 14.9, 7.44, 3.72, 1.86, 0.93, 0.46 μg/ml. Chloramphenicol was tested as a control, and inhibits bacteria growth (MIC90) at 7.44, 7.44, 4.0, 2.0 μg/mL, respectively, for the four bacterial strains listed in Table 1. In Table 1, the MICs are reported as the concentrations at 50% inhibition of bacteria growth, and N stands for no inhibition.

[2] = system: Enterococcus faecalis 29212; experiment: Antibacterial growth inhibition assay (serial dilution, colorimeter at 600 nm), E. faecalis 29212
Procedure: as §1

[3] = system: Staphylococcus aureus 29213; experiment: Antibacterial growth inhibition assay (serial dilution, colorimeter at 600 nm), S. aureus 29213; set-up: key to MIC, concentration at 50% inhibition of bacteria growth, S. aureus 29213: N stands for no inhibition
Procedure: as §1

Bacillus subtilis PY79 = experiment: Antibacterial growth inhibition assay (serial dilution, colorimeter at 600 nm), B. subtilis PY79; set-up: key to MIC, concentration at 50% inhibition of bacteria growth, B. subtilis PY79: N stands for no inhibition
Procedure: as §1

[4] = system: Gram positive bacteria, including S. aureus, E. faecalis and B. subtilis; experiment: Antibacterial activity, statements not tied to one strain; details: strain not singled out
Procedure: as §1

[5] = 50% growth inhibition, methicillin resistant strain, serial dilution 238-0.46 μg/ml
[6] = 50% growth inhibition, vancomycin susceptible strain, serial dilution 238-0.46 μg/ml
[7] = 50% growth inhibition, methicillin susceptible strain, serial dilution 238-0.46 μg/ml
[8] = 50% growth inhibition, serial dilution 238-0.46 μg/ml

Row | SMILES | MIC, concentration at 50% inhibition of bacteria growth, S. aureus 43300 [1, 5] | MIC, concentration at 50% inhibition of bacteria growth, E. faecalis 29212 [2, 6] | MIC, concentration at 50% inhibition of bacteria growth, S. aureus 29213 [3, 7] | MIC, concentration at 50% inhibition of bacteria growth, B. subtilis PY79 (Bacillus subtilis PY79; [8]) | further results
1 | CCN1CC[C@@H](CN(Cc2ccccc2)Cc2ccccc2[N+](=O)[O-])OC1=O [Compound A3] | 100 µg/mL | 43.0 µg/mL | 72.0 µg/mL | 100 µg/mL | 
2 | CCN1CC[C@@H](CN(Cc2ccccc2)Cc2ccc(C#N)cc2)OC1=O [Compound A4] | 59.5 µg/mL | 12.0 µg/mL | 180 µg/mL | 10.0 µg/mL | 
3 | CCN1CC[C@@H](CN(Cc2ccccc2)Cc2ccccc2C#N)OC1=O [Compound A6] | 180 µg/mL | 33.0 µg/mL | 130 µg/mL | 160 µg/mL | 
4 | CN1CC[C@@H](CN(Cc2ccccc2)Cc2cccc([N+](=O)[O-])c2)OC1=O [Compound B2] | N | 119 µg/mL | 138 µg/mL | 238 µg/mL | 
5 | CN1CC[C@@H](CN(Cc2ccccc2)Cc2ccc(F)cc2F)OC1=O [Compound B8] | 72.0 µg/mL | 59.5 µg/mL | 50.0 µg/mL | 55.0 µg/mL | 
6 | CCN1CC[C@@H](CN(Cc2ccccc2)Cc2cccc3ccccc23)OC1=O [Compound A13] |  |  |  |  | antibacterial activity in words [4]: most potent; MIC ([1]; Staphylococcus aureus, 43300, 50% growth inhibition, methicillin resistant strain, serial dilution 238-0.46 μg/ml, read-out: MIC, concentration at 50% inhibition of bacteria growth, S. aureus 43300): 35 µg/mL (≈ 90.1 µM); MIC ([2]; Enterococcus faecalis, 29212, 50% growth inhibition, vancomycin susceptible strain, serial dilution 238-0.46 μg/ml, read-out: MIC, concentration at 50% inhibition of bacteria growth, E. faecalis 29212): 7.4 µg/mL (≈ 19 µM); MIC ([3]; Staphylococcus aureus, 29213, 50% growth inhibition, methicillin susceptible strain, serial dilution 238-0.46 μg/ml, read-out: MIC, concentration at 50% inhibition of bacteria growth, S. aureus 29213): 10 µg/mL (≈ 25.7 µM); MIC90 ([3]; Staphylococcus aureus, 29213, concentration of inhibition at 90%, Table 2, read-out: MIC90 S. aureus 29213): 14.9 µg/mL (≈ 38.4 µM); MIC (Bacillus subtilis PY79; Bacillus subtilis, PY79, 50% growth inhibition, serial dilution 238-0.46 μg/ml, read-out: MIC, concentration at 50% inhibition of bacteria growth, B. subtilis PY79): 7.6 µg/mL (≈ 19.6 µM); MIC90 (Bacillus subtilis PY79; Bacillus subtilis, PY79, concentration of inhibition at 90%, Table 2, read-out: MIC90 B. subtilis PY79): 30 µg/mL (≈ 77.2 µM)
7 | CCN1CC[C@@H](CN(Cc2ccccc2)Cc2c(F)cccc2F)OC1=O [Compound A9] | 70.0 µg/mL | 59.5 µg/mL | 47.0 µg/mL | 77.0 µg/mL | 
8 | CCN1CC[C@@H](CN(Cc2ccccc2)Cc2ccc(F)cc2)OC1=O [Compound A7] | 47.0 µg/mL | 35.0 µg/mL | 64.0 µg/mL | 42.5 µg/mL | 
9 | CCN1CC[C@@H](CN(Cc2ccccc2)Cc2ccc(F)cc2F)OC1=O [Compound A8] | 50.5 µg/mL | 59.5 µg/mL | 45.0 µg/mL | 38.0 µg/mL | 
10 | CCN1CC[C@@H](CN(Cc2ccccc2)Cc2cccc(C#N)c2)OC1=O [Compound A5] | N | 45.0 µg/mL | 238 µg/mL | 238 µg/mL | 
11 | CCN1CC[C@@H](CN(Cc2ccccc2)Cc2ccc3ccccc3c2)OC1=O [Compound A12] | N | 13.0 µg/mL | 15.0 µg/mL | 29.0 µg/mL | antibacterial activity in words ([1]; S. aureus 43300): no activity; antibacterial activity in words ([3]; S. aureus 29213): promising activity
12 | CCN1CC[C@@H](CN(Cc2ccccc2)Cc2cccc([N+](=O)[O-])c2)OC1=O [Compound A2] | 22.0 µg/mL | 47.0 µg/mL | 90.0 µg/mL | 108 µg/mL | 
13 | CN1CC[C@@H](CN(Cc2ccccc2)Cc2ccccc2[N+](=O)[O-])OC1=O [Compound B3] | N | 238 µg/mL | 179 µg/mL | 238 µg/mL | 
14 | CCN1CC[C@@H](CN(Cc2ccccc2)Cc2ccc([N+](=O)[O-])cc2)OC1=O [Compound A1] | N | 45.0 µg/mL | N | N | 
15 | CN1CC[C@@H](CN(Cc2ccccc2)Cc2ccc(F)cc2)OC1=O [Compound B7] | 119 µg/mL | 120 µg/mL | 87.1 µg/mL | 95.0 µg/mL | 
16 | CCN1CC[C@@H](CN(Cc2ccccc2)Cc2cccc(OC)c2)OC1=O [Compound A16] | 90.0 µg/mL | 80.5 µg/mL | 90.0 µg/mL | 95.0 µg/mL | 
17 | CN1CC[C@@H](CN(Cc2ccccc2)Cc2cccc(C#N)c2)OC1=O [Compound B5] | 238 µg/mL | 7.40 µg/mL | 180 µg/mL | 180 µg/mL | 
18 | CCN1CC[C@@H](CN(Cc2ccccc2)Cc2ccc(Cl)c(Cl)c2)OC1=O (stereo in doubt) [Compound A11, 6-{[benzyl-(3,4-dichloro-benzyl)-amino]-methyl}-3-ethyl-[1,3]oxazinan-2-one] |  |  |  |  | antibacterial activity in words [4]: good activity
19 | CN1CC[C@@H](CN(Cc2ccccc2)Cc2ccc(C#N)cc2)OC1=O [Compound B4] | N | 238 µg/mL | 200 µg/mL | 238 µg/mL | 
20 | CN1CC[C@@H](CN(Cc2ccccc2)Cc2ccccc2C#N)OC1=O [Compound B6] | 180 µg/mL | 59.5 µg/mL | 166 µg/mL | 180 µg/mL | 
21 | O=C(N[C@H](CO)[C@H](O)c1ccc([N+](=O)[O-])cc1)C(Cl)Cl [Chloramphenicol, reference compound] |  |  |  |  | MIC90 ([1]; Staphylococcus aureus, S. aureus 43300, read-out: MIC90 (control)): 7.44 µg/mL (≈ 23 µM); MIC90 ([2]; Enterococcus faecalis, E. faecalis 29212, read-out: MIC90 (control)): 4 µg/mL (≈ 12.4 µM); MIC90 ([3]; Staphylococcus aureus, S. aureus 29213, read-out: MIC90 (control)): 7.44 µg/mL (≈ 23 µM); MIC90 (Bacillus subtilis PY79; Bacillus subtilis, B. subtilis PY79, read-out: MIC90 (control)): 2 µg/mL (≈ 6.19 µM)
22 | CN1CC[C@@H](CN(Cc2ccccc2)Cc2ccc([N+](=O)[O-])cc2)OC1=O [Compound B1] | N | 119 µg/mL | 81.0 µg/mL | 98.0 µg/mL | 
23 | CCN1CC[C@@H](CN(Cc2ccccc2)Cc2cc(F)cc(F)c2)OC1=O [Compound A10] | 45.0 µg/mL | 37.0 µg/mL | 40.0 µg/mL | 43.0 µg/mL | 
